Measurements taken from patent US20240067660A1, “MACROCYCLIC SPIROCYCLE DERIVATIVES AS MCL-1 INHIBITORS” (Janssen Pharmaceutica NV, priority 2019, published 2024).
Read-outs that look alike come from different tables or passages of the source.

Experiments:
MOLP8 cells = assay: MOLP8 CellEvent Caspase-3/7 Green IncuCyte live-cell apoptosis assay; assay type: cell-based, human
Method: (§1) MCL-1 is a regulator of apoptosis and is highly over-expressed in tumor cells that escape cell death. The assay evaluates the cellular potency of small-molecule compounds targeting regulators of the apoptosis pathway, primarily MCL-1, Bfl-1, Bcl-2, and other proteins of the Bcl-2 family. Protein-protein inhibitors disrupting the interaction of anti-apoptotic regulators with BH3-domain proteins initiate apoptosis.
Activation of the apoptotic pathway was measured using the CellEvent™ Caspase-3/7 Green ReadyProbes™ Reagent (Thermo Fisher C10423, C10723). This assay produces a green fluorescent stain in cells that enter the apoptosis pathway. CellEvent® Caspase-3/7 Green reagent is a four amino acid peptide (DEVD) conjugated to a nucleic acid-binding dye that is non-fluorescent when not bound to DNA. The CellEvent® Caspase-3/7 Green reagent is intrinsically non-fluorescent, as the DEVD peptide inhibits binding of the dye to DNA. Upon activation of caspase-3/7 in apoptotic cells, the DEVD peptide is cleaved and the free dye can bind DNA, generating a bright green fluorescence. The activation of Caspase-3 and Caspase-7 is downstream of inhibition of MCL-1 or other apoptosis inhibiting proteins in cell lines that are dependent on them.
The live-cell readout on the IncuCyte permits tracking over time of the Caspase activation. […] The IncuCyte readout also allows one to normalize for cell number, as the suspension cells are hard to distribute evenly.
Signals were measured every 2 h for a duration of 22 h. The ratio of the Caspase mask to the Confluence mask, per image, as raw data, was calculated and the kinetic trace for every well was exported to Genedata Screener for analysis.
In Genedata Screener values for 6 h, 12 h, and 22 h from the kinetic traces were extracted. The values were normalized against negative controls (untreated cells). A standard dose-response analysis was performed on the normalized data.
The following data was reported at each of the following three aforementioned time points: (a) The dose-response curve, (b) The qAC50 and qAC50 Mode, and (c) Max Activity.
Cells were maintained in culture medium containing 10% Heat Inactivated (HI) FBS, 2 mM L-Glutamine and 50 μg/mL Gentamycin phenol red free RPMI-1640. Cells were split at 0.4 million/mL twice a week.
On Day 1, plates containing individual wells with test compounds at 10 mM concentration, 150 nL per well. The final concentrations range from […] compound (and no compound control) and compounds were thawed at room temperature for 1 hour. 25 μl of prewarmed medium was added into each well by multidrop (column 1, 3-22, 24), followed by addition of DMSO control (0.6% DMSO) in column 2. The plate was sealed using Breathe-Easy® sealing membrane and shaken for 30 min at room temperature to dissolve the test compound(s) in medium. The plate was then kept in the incubator for 1 hour at 37° C., 5% CO2.
MOLP8 cells in medium at […] (20000/50 μl final in assay) were prepared with CellEvent™ Caspase-3/7 Green Detection Reagent at 4 μM (2 μM final in assay). Once prepared, the cells were added to the test compound plate in an amount of 20000 and the plate was immediately placed in the IncuCyte and imaging started using following settings: 10× objective, 2 s exposure time in green channel, interval of 2 h, acquisition stopped after 22 h.
For analysis in IncuCyte, a Basic Analysis protocol was defined to calculate the “confluence” and “caspase” areas from the “Phase” and “green” images, respectively, as follows: (a) Confluence: Segmentation Adjustment 1, Hole Fill 0, Adjust Size −2, No filters (b) Caspase: Top-Hat segmentation, Radius 10, Threshold 0.3 GCU, Edge Split On with sensitivity 0, Hole Fill 0, Adjust Size 1, and filter on a minimum Area of 20 μm^2. The analyzer is trained on a sufficient number of positive and negative control wells, as well as compound treated wells, verifying that the “confluence” layer detects both live and dead (condensed) cells. […]

[1] = tested on: MOLP-8 human multiple myeloma cell line; assay: Caspase-Glo 3/7 assay in MOLP-8 cells; assay type: cell-based; settings: Caspase-Glo 3/7, 2 hours incubation, averaged over all runs on all batches, read-out: MOLP8 AC50
Source text: as §1
The Caspase-Glo® 3/7 Assay is a luminescent assay that measures caspase-3 and -7 activities in purified enzyme preparations or cultures of adherent or suspension cells. The assay provides a proluminescent caspase-3/7 substrate, which contains the tetrapeptide sequence DEVD. This substrate is cleaved to release aminoluciferin, a substrate of luciferase used in the production of light. Addition of the single Caspase-Glo® 3/7 Reagent in an “add-mix-measure” format results in cell lysis, followed by caspase cleavage of the substrate and generation of a “glow-type” luminescent signal.
This assay uses the MOLP-8 human multiple myeloma cell line, which is sensitive to MCL-1 inhibition.
Cell cultures were maintained between 0.2 and 2.0×10^6 cells/mL. The cells were harvested by collection in 50 mL conical tubes. The cells were then pelleted at 500 g for 5 mins before removing supernatant and resuspension in fresh pre-warmed culture medium. The cells were counted and diluted as needed.
The assay reagent was prepared by transferring the buffer solution to the substrate vial and mixing. The solution may be stored for up to 1 week at 4° C. with negligible loss of signal.
Compounds were delivered in assay-ready plates (Proxiplate) and stored at −20° C. Assays always include 1 reference compound plate containing reference compounds. The plates were spotted with 40 nL of compounds (0.5% DMSO final in cells; serial dilution; 30 μM highest conc. 1/3 dilution, 10 doses, duplicates). The compounds were used at room temperature and 4 μL of pre-warmed media was added to all wells except column 2 and 23. The negative control was prepared by adding 1% DMSO in media. The positive control was prepared by adding the appropriate positive control compound in final concentration of 60 μM in media. The plate was prepared by adding 4 μL negative control to column 23, 4 μL positive control to column 2 and 4 μL cell suspension to all wells in the plate. The plate with cells was then incubated at 37° C. for 2 hours. The assay signal reagent is the Caspase-Glo solution described above, and 8 μL was added to all wells. The plates were then sealed and measured after 30 minutes.
The activity of a test compound was calculated as percent change in apoptosis induction as follows: […]

[2] = Homo sapiens, MOLP-8, 6 h, 6 h, read-out: MOLP8 Caspase 3/7 AC50 at 6 h
[3] = Homo sapiens, MOLP-8, 12 h, 12 h, read-out: MOLP8 Caspase 3/7 AC50 at 12 h
[4] = Homo sapiens, MOLP-8, 22 h, 22 h, read-out: MOLP8 Caspase 3/7 AC50 at 22 h

Structure (SMILES) | AC50 (MOLP8 cells; [2]) | AC50 (MOLP8 cells; [3]) | AC50 (MOLP8 cells; [4]) | AC50 ([1]; Homo sapiens, MOLP-8, 2 h) | AC50 (MOLP8 cells; 6 h, read-out: MOLP8 Caspase 3/7 AC50 at 6 h) | AC50 (MOLP8 cells; 12 h, read-out: MOLP8 Caspase 3/7 AC50 at 12 h) | AC50 (MOLP8 cells; 22 h, read-out: MOLP8 Caspase 3/7 AC50 at 22 h) | AC50 [1]
COCC1/C=C/C[C@H](C)[C@@H](C)S(=O)(=O)NC(=O)c2ccc3c(c2)N(C[C@@H]2CCCN12)C[C@@]1(CCCc2cc(Cl)ccc21)CO3 (single isomer, unassigned) [Compound 8] | 2390 nM | 2490 nM | 2840 nM | 1330 nM | – | – | – | –
C[C@@H]1[C@@H](C)C/C=C/C(CO)N2CC[C@H]2CN2C[C@@]3(CCCc4cc(Cl)ccc43)COc3ccc(cc32)C(=O)NS1(=O)=O (single isomer, unassigned) [Compound 10] | 3070 nM | 3240 nM | 3430 nM | 1490 nM | – | – | – | –
COC[C@H]1/C=C/C[C@@H](C)[C@@H](C)S(=O)(=O)NC(=O)c2ccc3c(c2)N(C[C@@H]2CCN21)C[C@@]1(CCCc2cc(Cl)ccc21)CO3 [Compound 4] | ~1310 nM | 1200 nM | ~1380 nM | 740 nM | – | – | – | –
COC[C@@H]1/C=C/C[C@@H](C)[C@@H](C)S(=O)(=O)NC(=O)c2ccc3c(c2)N(C[C@@H]2CCN21)C[C@@]1(CCCc2cc(Cl)ccc21)CO3 [Compound 7] | 2160 nM | 1720 nM | 1900 nM | 852 nM | – | – | – | –
C[C@@H]1[C@@H](C)C/C=C(\F)[C@H](CO)N2CC[C@H]2CN2C[C@@]3(CCCc4cc(Cl)ccc43)COc3ccc(cc32)C(=O)NS1(=O)=O [Compound 9] | 400 nM | 400 nM | 400 nM | 144 nM | – | – | – | –
C[C@@H]1[C@@H](C)C/C=C(\F)[C@H](COc2ccccn2)N2CC[C@H]2CN2C[C@@]3(CCCc4cc(Cl)ccc43)COc3ccc(cc32)C(=O)NS1(=O)=O [Compound 11] | 2380 nM | 2320 nM | 2520 nM | 1490 nM | – | – | – | –
C[C@@H]1[C@@H](C)C/C=C(\F)[C@H](COc2ccccn2)N2CC[C@@H]2CN2C[C@@]3(CCCc4cc(Cl)ccc43)COc3ccc(cc32)C(=O)NS1(=O)=O [Compound 12] | – | – | – | – | 1220 nM | 1120 nM | 1330 nM | 520 nM
COC[C@H]1/C(F)=C/C[C@H](C)[C@@H](C)S(=O)(=O)NC(=O)c2ccc3c(c2)N(C[C@@H]2CCN21)C[C@@]1(CCCc2cc(Cl)ccc21)CO3 [Compound 13] | 520 nM | 530 nM | 560 nM | 181 nM | – | – | – | –
CC(C)COC[C@H]1/C(F)=C/C[C@H](C)[C@@H](C)S(=O)(=O)NC(=O)c2ccc3c(c2)N(C[C@@H]2CCN21)C[C@@]1(CCCc2cc(Cl)ccc21)CO3 [Compound 15] | 2430 nM | 2400 nM | 2420 nM | 1860 nM | – | – | – | –
CCOC[C@H]1/C(F)=C/C[C@H](C)[C@@H](C)S(=O)(=O)NC(=O)c2ccc3c(c2)N(C[C@@H]2CCN21)C[C@@]1(CCCc2cc(Cl)ccc21)CO3 [Compound 16] | 450 nM | 450 nM | 480 nM | 207 nM | – | – | – | –
C[C@@H]1[C@@H](C)C/C=C(\F)[C@H](COCC(=O)O)N2CC[C@H]2CN2C[C@@]3(CCCc4cc(Cl)ccc43)COc3ccc(cc32)C(=O)NS1(=O)=O [Compound 17] | 11100 nM | 10000 nM | 9610 nM | 5990 nM | – | – | – | –
C[C@@H]1[C@@H](C)C/C=C(\F)[C@H](COCC(=O)N2CCOCC2)N2CC[C@H]2CN2C[C@@]3(CCCc4cc(Cl)ccc43)COc3ccc(cc32)C(=O)NS1(=O)=O [Compound 18] | 660 nM | 570 nM | 600 nM | 448 nM | – | – | – | –
C[C@@H]1[C@@H](C)C/C=C(\F)[C@H](COCC(=O)N2CC(F)(F)C2)N2CC[C@H]2CN2C[C@@]3(CCCc4cc(Cl)ccc43)COc3ccc(cc32)C(=O)NS1(=O)=O [Compound 19] | 390 nM | 400 nM | 430 nM | 302 nM | – | – | – | –
COCCCOC[C@H]1/C(F)=C/C[C@H](C)[C@@H](C)S(=O)(=O)NC(=O)c2ccc3c(c2)N(C[C@@H]2CCN21)C[C@@]1(CCCc2cc(Cl)ccc21)CO3 [Compound 22] | 550 nM | 570 nM | 620 nM | 274 nM | – | – | – | –
C[C@@H]1[C@@H](C)C/C=C(\F)[C@H](COCCC2CCOCC2)N2CC[C@H]2CN2C[C@@]3(CCCc4cc(Cl)ccc43)COc3ccc(cc32)C(=O)NS1(=O)=O [Compound 23] | 1110 nM | 1040 nM | 1150 nM | 545 nM | – | – | – | –
Cc1nc(COC[C@H]2/C(F)=C/C[C@H](C)[C@@H](C)S(=O)(=O)NC(=O)c3ccc4c(c3)N(C[C@@H]3CCN32)C[C@@]2(CCCc3cc(Cl)ccc32)CO4)no1 [Compound 24] | 390 nM | 410 nM | 400 nM | 234 nM | – | – | – | –
C[C@@H]1[C@@H](C)C/C=C(\F)[C@H](COCCCN2CCOCC2)N2CC[C@H]2CN2C[C@@]3(CCCc4cc(Cl)ccc43)COc3ccc(cc32)C(=O)NS1(=O)=O [Compound 25] | 360 nM | 360 nM | 360 nM | 231 nM | – | – | – | –
C[C@@H]1[C@@H](C)C/C=C(\F)[C@H](COCC2CCC2)N2CC[C@H]2CN2C[C@@]3(CCCc4cc(Cl)ccc43)COc3ccc(cc32)C(=O)NS1(=O)=O [Compound 26] | 3540 nM | 3570 nM | 3060 nM | 2520 nM | – | – | – | –
C[C@@H]1[C@@H](C)C/C=C(\F)[C@H](CF)N2CC[C@H]2CN2C[C@@]3(CCCc4cc(Cl)ccc43)COc3ccc(cc32)C(=O)NS1(=O)=O [Compound 31] | 1090 nM | 900 nM | 940 nM | 512 nM | – | – | – | –
